# Paper PMC5218480 (PLoS ONE, 2017)
# System: MV-4-11 cells
# Experiment: Gene expression microarray analysis (Affymetrix PrimeView) and GSEA
# Format: cell-based, human
# Parameters: RFU PODN (11730768_x_at) / Fold change /veh PODN (11730768_x_at) / RFU LINC00158 (11744669_a_at) / Fold change /veh LINC00158 (11744669_a_at) / RFU DUSP10 (11751237_a_at) / Fold change /veh DUSP10 (11751237_a_at) / RFU ID3 (11757404_x_at) / Fold change /veh ID3 (11757404_x_at) / RFU PLEKHG5 (11737974_s_at) / Fold change /veh PLEKHG5 (11737974_s_at) / RFU LRRC4B (11730491_at) / Fold change /veh LRRC4B (11730491_at) / RFU GIMAP4 (11747438_a_at) / Fold change /veh GIMAP4 (11747438_a_at) / RFU KRT8 (11758183_x_at) / Fold change /veh KRT8 (11758183_x_at) / RFU CNN1 (11734310_a_at) / Fold change /veh CNN1 (11734310_a_at) / RFU VPS37D (11726825_at) / Fold change /veh VPS37D (11726825_at) / RFU C10orf10 (11716522_x_at) / Fold change /veh C10orf10 (11716522_x_at) / RFU KIR2DL2 /// KIR2DL4 /// KIR2DL5A /// KIR2DL5B /// KIR2DS1 /// KIR2DS2 /// KIR2DS3 /// KIR2DS4 /// KIR3DL3 /// KIR3DL3 /// KIR3DS1 (11738374_at) / Fold change /veh KIR2DL2 /// KIR2DL4 /// KIR2DL5A /// KIR2DL5B /// KIR2DS1 /// KIR2DS2 /// KIR2DS3 /// KIR2DS4 /// KIR3DL3 /// KIR3DL3 /// KIR3DS1 (11738374_at) / RFU C1QL1 (11718748_at) / Fold change /veh C1QL1 (11718748_at) / RFU TMPRSS4 (11747572_a_at) / Fold change /veh TMPRSS4 (11747572_a_at) / RFU HAMP (11756126_x_at) / Fold change /veh HAMP (11756126_x_at) / RFU RNFT2 (11725882_a_at) / Fold change /veh RNFT2 (11725882_a_at) / RFU NR4A2 (11747474_a_at) / Fold change /veh NR4A2 (11747474_a_at) / RFU ABCC12 (11746883_a_at) / Fold change /veh ABCC12 (11746883_a_at) / RFU TMEM136 (11760407_x_at) / Fold change /veh TMEM136 (11760407_x_at) / RFU CLDN22 /// WWC2 (11732394_at) / Fold change /veh CLDN22 /// WWC2 (11732394_at) / RFU HLA-DPB1 (11760878_x_at) / Fold change /veh HLA-DPB1 (11760878_x_at) / RFU SPINT1 (11716480_a_at) / Fold change /veh SPINT1 (11716480_a_at) / RFU GAP43 (11754022_s_at) / Fold change /veh GAP43 (11754022_s_at) / RFU A4GNT (11735810_at) / Fold change /veh A4GNT (11735810_at) / RFU PRB3 (11715151_x_at) / Fold change /veh PRB3 (11715151_x_at) / RFU TUBB4B (11761932_at) / Fold change /veh TUBB4B (11761932_at) / RFU CAPN14 (11732068_a_at) / Fold change /veh CAPN14 (11732068_a_at) / RFU TMCC2 (11721928_a_at) / Fold change /veh TMCC2 (11721928_a_at) / RFU IRGQ (11745062_a_at) / Fold change /veh IRGQ (11745062_a_at) / RFU FAM174B (11720279_a_at) / Fold change /veh FAM174B (11720279_a_at) / RFU TMPRSS4 (11748680_a_at) / Fold change /veh TMPRSS4 (11748680_a_at) / RFU FAM212B (11763350_a_at) / Fold change /veh FAM212B (11763350_a_at) / RFU PLEKHG5 (11743358_a_at) / Fold change /veh PLEKHG5 (11743358_a_at) / RFU ZSCAN30 (11745921_a_at) / Fold change /veh ZSCAN30 (11745921_a_at) / RFU CMKLR1 (11741424_a_at) / Fold change /veh CMKLR1 (11741424_a_at) / RFU LOC101060620 /// MAPK8IP1 (11723275_at) / Fold change /veh LOC101060620 /// MAPK8IP1 (11723275_at) / RFU SPTSSB (11747773_x_at) / Fold change /veh SPTSSB (11747773_x_at) / RFU PRSS12 (11739890_at) / Fold change /veh PRSS12 (11739890_at) / RFU BIN1 (11741810_x_at) / Fold change /veh BIN1 (11741810_x_at) / RFU WNT11 (11732464_a_at) / Fold change /veh WNT11 (11732464_a_at) / RFU C10orf10 (11716521_a_at) / Fold change /veh C10orf10 (11716521_a_at) / RFU C5orf56 (11738089_at) / Fold change /veh C5orf56 (11738089_at) / RFU CYB561 (11721691_x_at) / Fold change /veh CYB561 (11721691_x_at) / RFU ANKRD19P (11752326_a_at) / Fold change /veh ANKRD19P (11752326_a_at) / RFU OR2T12 /// OR2T33 /// OR2T8 (11738714_s_at) / Fold change /veh OR2T12 /// OR2T33 /// OR2T8 (11738714_s_at) / RFU VCAN (11748164_a_at) / Fold change /veh VCAN (11748164_a_at) / RFU JSRP1 (11732532_at) / Fold change /veh JSRP1 (11732532_at) / RFU KRTAP10-11 (11738290_x_at) / Fold change /veh KRTAP10-11 (11738290_x_at) / RFU MYO3A (11730013_a_at) / Fold change /veh MYO3A (11730013_a_at) / RFU EBF3 (11725865_a_at) / Fold change /veh EBF3 (11725865_a_at) / RFU CAMK2N1 (11719241_x_at) / Fold change /veh CAMK2N1 (11719241_x_at) / RFU C5orf56 (11738088_a_at) / Fold change /veh C5orf56 (11738088_a_at) / RFU OLFML3 (11715873_a_at) / Fold change /veh OLFML3 (11715873_a_at) / RFU LOC100653217 /// NTM (11731650_a_at) / Fold change /veh LOC100653217 /// NTM (11731650_a_at) / RFU MAPK11 (11762145_a_at) / Fold change /veh MAPK11 (11762145_a_at) / RFU FIZ1 (11724087_x_at) / Fold change /veh FIZ1 (11724087_x_at) / RFU OASL (11726364_x_at) / Fold change /veh OASL (11726364_x_at) / RFU SOX15 (11748057_x_at) / Fold change /veh SOX15 (11748057_x_at) / RFU CD79A (11719716_a_at) / Fold change /veh CD79A (11719716_a_at) / RFU HIST1H1D (11736915_at) / Fold change /veh HIST1H1D (11736915_at) / RFU CASKIN2 (11723855_a_at) / Fold change /veh CASKIN2 (11723855_a_at) / RFU LOC730098 (11760151_x_at) / Fold change /veh LOC730098 (11760151_x_at) / RFU OR4N2 (11742367_at) / Fold change /veh OR4N2 (11742367_at) / RFU PRRT2 (11749266_a_at) / Fold change /veh PRRT2 (11749266_a_at) / RFU SNX32 (11753110_a_at) / Fold change /veh SNX32 (11753110_a_at) / RFU CDHR5 (11726645_a_at) / Fold change /veh CDHR5 (11726645_a_at) / RFU RCAN1 (11760418_a_at) / Fold change /veh RCAN1 (11760418_a_at) / RFU FAM167A (11723789_a_at) / Fold change /veh FAM167A (11723789_a_at) / RFU FAM26E (11764081_at) / Fold change /veh FAM26E (11764081_at) / RFU ISYNA1 (11749810_s_at) / Fold change /veh ISYNA1 (11749810_s_at) / RFU ACY1 (11761880_at) / Fold change /veh ACY1 (11761880_at) / RFU 11764098_at / Fold change /veh 11764098_at / RFU SAMD14 (11745864_x_at) / Fold change /veh SAMD14 (11745864_x_at) / RFU NPB (11741838_a_at) / Fold change /veh NPB (11741838_a_at) / RFU TMPRSS6 (11731388_a_at) / Fold change /veh TMPRSS6 (11731388_a_at) / RFU KRTAP10-2 (11738614_at) / Fold change /veh KRTAP10-2 (11738614_at) / RFU ARHGAP8 /// PRR5-ARHGAP8 (11727945_x_at) / Fold change /veh ARHGAP8 /// PRR5-ARHGAP8 (11727945_x_at) / RFU KRTAP5-7 /// NADSYN1 (11734609_at) / Fold change /veh KRTAP5-7 /// NADSYN1 (11734609_at) / RFU RASL12 (11751679_a_at) / Fold change /veh RASL12 (11751679_a_at) / RFU CDKN2B (11736163_a_at) / Fold change /veh CDKN2B (11736163_a_at) / RFU PRF1 (11729649_at) / Fold change /veh PRF1 (11729649_at) / RFU, ZNF638 /// ZNF638-IT1 / Fold change vs veh, ZNF638 /// ZNF638-IT1 / RFU, PANK3 / Fold change vs veh, PANK3 / RFU, SH3YL1 / Fold change vs veh, SH3YL1 / RFU, ZEB2 / Fold change vs veh, ZEB2 / RFU, NRIP1 / Fold change vs veh, NRIP1 / RFU, PTTG1IP / Fold change vs veh, PTTG1IP / RFU, CAPN2 / Fold change vs veh, CAPN2 / RFU, MED14 / Fold change vs veh, MED14 / RFU, SNORA58 / Fold change vs veh, SNORA58 / RFU, C1orf63 / Fold change vs veh, C1orf63 / RFU, LRRFIP1 / Fold change vs veh, LRRFIP1 / RFU, NDUFAF7 / Fold change vs veh, NDUFAF7 / RFU, SLC12A2 / Fold change vs veh, SLC12A2 / RFU, IBTK / Fold change vs veh, IBTK / RFU, ESF1 / Fold change vs veh, ESF1 / Fold change vs veh, TMEM50B / RFU, TAOK1 / Fold change vs veh, TAOK1 / RFU, ACBD3 / Fold change vs veh, ACBD3 / RFU, TMA16 / Fold change vs veh, TMA16 / RFU, RWDD3 / Fold change vs veh, RWDD3 / RFU, BCAT1 / Fold change vs veh, BCAT1 / RFU, EDEM3 / Fold change vs veh, EDEM3 / RFU, TMEM33 / Fold change vs veh, TMEM33 / RFU, WDR75 / Fold change vs veh, WDR75 / RFU, AHCTF1 / Fold change vs veh, AHCTF1 / RFU, TFRC / Fold change vs veh, TFRC / RFU, ZDHHC17 / Fold change vs veh, ZDHHC17 / RFU, NOM1 / Fold change vs veh, NOM1 / RFU, ARL8B / Fold change vs veh, ARL8B / RFU, ZBTB11 / Fold change vs veh, ZBTB11 / RFU, TAMM41 / Fold change vs veh, TAMM41 / RFU, KIAA1704 /// LOC100996395 / Fold change vs veh, KIAA1704 /// LOC100996395 / RFU, ING1 / Fold change vs veh, ING1 / RFU, TRMT61B / Fold change vs veh, TRMT61B / RFU, FUBP3 / Fold change vs veh, FUBP3 / RFU, TP53 / Fold change vs veh, TP53 / RFU, TNKS2 / Fold change vs veh, TNKS2 / RFU, ZFP14 / Fold change vs veh, ZFP14 / RFU, ACTR2 / Fold change vs veh, ACTR2 / RFU, PPP3R1 / Fold change vs veh, PPP3R1 / RFU, PIK3R1 / Fold change vs veh, PIK3R1 / RFU, HNRNPA1 / Fold change vs veh, HNRNPA1 / RFU, RNF170 / Fold change vs veh, RNF170 / RFU, ZNF28 / Fold change vs veh, ZNF28 / RFU, RNGTT / Fold change vs veh, RNGTT / RFU, OGT / Fold change vs veh, OGT / RFU, BRD1 / Fold change vs veh, BRD1 / RFU, MARS / Fold change vs veh, MARS / RFU, ZNF655 / Fold change vs veh, ZNF655 / RFU, FAHD1 / Fold change vs veh, FAHD1 / RFU, BDP1 / Fold change vs veh, BDP1 / RFU, LRRCC1 / Fold change vs veh, LRRCC1 / RFU, ARID1A / Fold change vs veh, ARID1A / RFU, ZNF146 / Fold change vs veh, ZNF146 / RFU, ZNF330 / Fold change vs veh, ZNF330 / RFU, GPN3 / Fold change vs veh, GPN3 / RFU, C9orf123 / Fold change vs veh, C9orf123 / RFU, N4BP2L2 / Fold change vs veh, N4BP2L2 / RFU, ARFIP1 / Fold change vs veh, ARFIP1 / RFU, FAM179B / Fold change vs veh, FAM179B / RFU, BCL10 / Fold change vs veh, BCL10 / RFU, UHRF1BP1L / Fold change vs veh, UHRF1BP1L / RFU, BET1 / Fold change vs veh, BET1 / RFU, CNOT2 / Fold change vs veh, CNOT2 / RFU, ZNF268 / Fold change vs veh, ZNF268 / Fold change vs veh, ZNF507 / RFU, DGCR2 / Fold change vs veh, DGCR2 / RFU, WDSUB1 / Fold change vs veh, WDSUB1 / Fold change vs veh, HSP90B1 /// MIR3652 / RFU, ADSS / Fold change vs veh, ADSS / RFU, GK / Fold change vs veh, GK / RFU, ZNF148 / Fold change vs veh, ZNF148 / RFU, TAF9 / Fold change vs veh, TAF9 / RFU, SLC1A5 / Fold change vs veh, SLC1A5 / RFU, SLMO2 / Fold change vs veh, SLMO2 / RFU, ABCC4 / Fold change vs veh, ABCC4 / RFU, LOC101060439 /// RAP1B / Fold change vs veh, LOC101060439 /// RAP1B / RFU, RFX7 / Fold change vs veh, RFX7 / RFU, GTPBP10 / Fold change vs veh, GTPBP10 / RFU, CNEP1R1 / Fold change vs veh, CNEP1R1 / RFU, BIVM-ERCC5 /// ERCC5 / Fold change vs veh, BIVM-ERCC5 /// ERCC5 / RFU, ILF3 / Fold change vs veh, ILF3 / RFU 11762660_at / Fold change /veh 11762660_at / RFU VCAN (11757783_s_at) / Fold change /veh VCAN (11757783_s_at) / RFU DDX43 (11728927_at) / Fold change /veh DDX43 (11728927_at) / RFU KRT8 (11758188_x_at) / Fold change /veh KRT8 (11758188_x_at) / RFU NKD1 (11759106_at) / Fold change /veh NKD1 (11759106_at) / RFU SRD5A1 (11742802_a_at) / Fold change /veh SRD5A1 (11742802_a_at) / RFU TPSAB1 /// TPSB2 (11721975_s_at) / Fold change /veh TPSAB1 /// TPSB2 (11721975_s_at) / RFU GSTM3 (11746129_a_at) / Fold change /veh GSTM3 (11746129_a_at) / RFU IL23R (11737362_x_at) / Fold change /veh IL23R (11737362_x_at) / RFU TMEM51 (11727254_a_at) / Fold change /veh TMEM51 (11727254_a_at) / RFU PIWIL2 (11732686_x_at) / Fold change /veh PIWIL2 (11732686_x_at) / RFU ORM1 (11744905_x_at) / Fold change /veh ORM1 (11744905_x_at) / RFU CCDC152 (11743942_at) / Fold change /veh CCDC152 (11743942_at) / RFU ECM1 (11717891_a_at) / Fold change /veh ECM1 (11717891_a_at) / RFU IL23R (11748794_a_at) / Fold change /veh IL23R (11748794_a_at) / RFU TNFAIP8L3 (11732012_x_at) / Fold change /veh TNFAIP8L3 (11732012_x_at) / RFU MBOAT4 (11741988_at) / Fold change /veh MBOAT4 (11741988_at) / RFU 11764193_at / Fold change /veh 11764193_at / RFU TMEM53 (11763286_at) / Fold change /veh TMEM53 (11763286_at) / RFU MAGEB2 (11727129_at) / Fold change /veh MAGEB2 (11727129_at) / RFU TMEM200A (11744735_a_at) / Fold change /veh TMEM200A (11744735_a_at) / RFU CCDC152 (11751479_a_at) / Fold change /veh CCDC152 (11751479_a_at) / RFU FAM211A (11726209_a_at) / Fold change /veh FAM211A (11726209_a_at) / RFU RGS16 (11746705_a_at) / Fold change /veh RGS16 (11746705_a_at) / RFU VCAN (11755009_s_at) / Fold change /veh VCAN (11755009_s_at) / RFU RHOB (11743442_s_at) / Fold change /veh RHOB (11743442_s_at) / RFU RGS16 (11720943_a_at) / Fold change /veh RGS16 (11720943_a_at) / RFU RGS16 (11720944_at) / Fold change /veh RGS16 (11720944_at) / RFU, VPS4B / Fold change vs veh, VPS4B / RFU, CREB1 / Fold change vs veh, CREB1 / RFU, DNAJC13 / Fold change vs veh, DNAJC13 / RFU, GNAQ / Fold change vs veh, GNAQ / RFU, CDK5R1 / Fold change vs veh, CDK5R1 / RFU, ZRANB3 / Fold change vs veh, ZRANB3 / RFU, CUL4A / Fold change vs veh, CUL4A / RFU, CCNY / Fold change vs veh, CCNY / RFU, UFL1 / Fold change vs veh, UFL1 / RFU, COG3 / Fold change vs veh, COG3 / RFU, DIAPH2 / Fold change vs veh, DIAPH2 / RFU, SKA2 / Fold change vs veh, SKA2 / RFU, AFF3 / Fold change vs veh, AFF3 / RFU, LMF1 / Fold change vs veh, LMF1 / RFU, IPO11 / Fold change vs veh, IPO11 / RFU, DFFB / Fold change vs veh, DFFB / RFU, FOXP1 / Fold change vs veh, FOXP1 / RFU, CARD8 / Fold change vs veh, CARD8 / RFU, STRN3 / Fold change vs veh, STRN3 / RFU, ADK / Fold change vs veh, ADK / RFU, RASSF2 / Fold change vs veh, RASSF2 / RFU, WIPF1 / Fold change vs veh, WIPF1 / RFU, LARP1B / Fold change vs veh, LARP1B / RFU, RASA1 / Fold change vs veh, RASA1 / RFU, RB1 / Fold change vs veh, RB1 / RFU, PPFIA1 / Fold change vs veh, PPFIA1 / RFU, MAT2A / Fold change vs veh, MAT2A / RFU, CCT5 / Fold change vs veh, CCT5 / RFU, WDR92 / Fold change vs veh, WDR92 / RFU, CUX1 / Fold change vs veh, CUX1 / RFU, TTC7A / Fold change vs veh, TTC7A / RFU, TMEM135 / Fold change vs veh, TMEM135 / RFU, DEPTOR / Fold change vs veh, DEPTOR / RFU, CPM / Fold change vs veh, CPM / RFU, DNAJB6 / Fold change vs veh, DNAJB6 / RFU, CACNA2D3 / Fold change vs veh, CACNA2D3 / RFU, DTX4 / Fold change vs veh, DTX4 / RFU, TFCP2 / Fold change vs veh, TFCP2 / RFU, GMCL1 /// GMCL1P1 / Fold change vs veh, GMCL1 /// GMCL1P1 / RFU, AEBP2 / Fold change vs veh, AEBP2 / RFU, SNHG1 /// SNORD22 /// SNORD25 /// SNORD26 /// SNORD27 /// SNORD28 /// SNORD29 /// SNORD31 / Fold change vs veh, SNHG1 /// SNORD22 /// SNORD25 /// SNORD26 /// SNORD27 /// SNORD28 /// SNORD29 /// SNORD31 / Fold change (Aza/veh), C12orf56 (ProbeSet 11735607_a_at) / Fold change (ACY-1035/veh), C12orf56 (ProbeSet 11735607_a_at) / Fold change (Aza/veh), FGFR1OP (ProbeSet 11751329_s_at) / Fold change (ACY-1035/veh), FGFR1OP (ProbeSet 11751329_s_at) / Fold change (Aza/veh), VPS36 (ProbeSet 11739960_a_at) / Fold change (ACY-1035/veh), VPS36 (ProbeSet 11739960_a_at) / RFU SYPL1 (11715823_x_at) / Fold change /veh SYPL1 (11715823_x_at) / RFU IGFBP7 (11715501_s_at) / Fold change /veh IGFBP7 (11715501_s_at) / RFU REEP3 (11722064_at) / Fold change /veh REEP3 (11722064_at) / RFU IGLL1 (11728026_x_at) / Fold change /veh IGLL1 (11728026_x_at): dose or concentration left out as unconfirmed
# Details: ProbeSet 11743929_at; LIST B
compound,measurement,value
Nc1ncn([C@@H]2O[C@H](CO)[C@@H](O)[C@H]2O)c(=O)n1 [azacitidine],"Fold change vs veh, UHRF1BP1L",0.95
